Experimental data: patent US20190151283A1, “NON-STEROIDAL SELECTIVE GLUCOCORTICOID RECEPTOR AGONISTIC MODULATORS (SEGRAMs) AND USES THEREOF” (ASSOCIATION POUR LA RECHERCHE À L'IGBMC (ARI), priority 2017, published 2019)

Legend:
Balb/C mice = assay: Skin atrophy after 8-day topical treatment of dorsal skin; format: in vivo, mouse
Description: To investigate whether, similarly to Dex, a topical administration of CpdX could result in a skin atrophy, Balb/C mice were shaved on the dorsal skin. Ethanol (vehicle), Dex, CpdX or either one of its two enantiomers CpdX(eA) or CpdX(eB), as well as the deuterated form CpdX-D3 or either one of its two enantiomers CpdX-D3(eA) or CpdX-D3(eB), were topically applied onto the dorsal skin for 8 days.
Upon completion of the treatments, RNA transcripts were extracted from dorsal skin samples and the transcripts of Kindlin-1 and REDD1 genes were analyzed by q-RT-PCR. Histological and morphometric analyses of the dorsal skin were also performed.

B6 male mice [1] = assay: Bone formation after three-month treatment (micro-CT, WNT16 transcripts); format: in vivo, mouse; conditions: three months
Description: (§1) B6 male mice (8-week-old) were daily subjected for three months to either a subcutaneous injection of vehicle (NaCl 0.9%), Dex, CpdX, CpdX(eA), CpdX(eB), CpdX-D3, CpdX-D3(eA) or CpdX-D3(eB) (1 mg/kg body weight, diluted in NaCl 0.9%).
From each animal included in the experiments, one femur and the ipsilateral tibia were dissected and preserved in 70% ethanol for further bone microstructure analysis by micro-CT. The FX Quantum micro-CT scanner (Perkin Elmer) was used to perform measurements at the distal femur and midshaft tibia. All scans were performed with an isotropic voxel size of 10 μm, 160 μA tube current and 90 kV tube voltage.
Morphological 3D measurements were performed using the CTAn software (Bruker). Cortical bone parameters, which were measured in the tibia midshaft, included measures of the bone volume fraction as compared to the total volume, cortical thickness, total area, bone area and marrow area. The region of interest was selected from below the distal tibial crest and continued for 20 slices toward the proximal end of the tibia. Trabecular bone parameters were measured in the distal metaphysis of the femurs and included bone volume fraction, trabecular thickness, trabecular number and trabecular spacing. The region of interest was selected from below the distal growth plate where the epiphyseal cap structure completely disappeared and continued for 100 slices toward the proximal end of the femur.
The statistical significance as compared to vehicle treatment was calculated through one-way ANOVA test followed by Dunn's multiple comparison test, *p<0.05; **p<0.01; ***p<0.001; ****p<0.0001.

B6 male mice [2] = assay: Body weight and body composition after three-month treatment; format: in vivo, mouse; conditions: s.c. 1 mg/kg daily, 3 months
Description: B6 male mice (8-week-old) were daily subjected for three months to a subcutaneous injection of either vehicle (NaCl 0.9%), Dex, CpdX or CpdX-D3 (1 mg/kg body weight, diluted in vehicle. A pDEXA machine was used to determine the lean mass and fat mass. The statistical significance was calculated through Krustal-Walis test followed by a Dunn's multiple comparison test, *p<0.05; **p<0.01; ***p<0.001.

B6 male mice [3] = assay: Organ weights (thymus, spleen, adrenal gland, kidney) after three-month treatment; format: in vivo, mouse; conditions: s.c. 1 mg/kg daily, three months
Description: as §1, with “to” for “to either”, “of either” for “of”, “vehicle). Following these treatments, four organs (thymus, spleen, adrenal gland and kidney) were harvested and weighted.” for “NaCl 0.9%).”

B6 male mice [4] = assay: Corticosterone synthesis and adrenal gland after three-month treatment; format: in vivo, mouse
Description: B6 male mice (8-week-old) were daily subjected for three months to either a subcutaneous injection of vehicle (NaCl 0.9%), Dex, CpdX, CpdX(eA), CpdX(eB), CpdX-D3, CpdX-D3(eA) or CpdX-D3(eB) (1 mg/kg body weight, diluted in vehicle).
Following this long-term treatment, blood was collected at 10 a.m. and 6 p.m. by retro-orbital puncture in lithium-heparin coated vials, and the plasmatic level of corticosterone was determined. Adrenal glands were harvested and weighted. RNA transcripts were extracted and transcripts of the Cyp11a, Cyp11b1, Cyp11b2 and HSD3β genes were analyzed by q-RT-PCR. Histological analyses of the adrenal glands were also carried out.

B6 male mice [5] = assay: Blood glucose and intraperitoneal glucose tolerance test after three-month treatment; format: in vivo, mouse
Description: B6 male mice (8-week-old) were daily subjected for three months to a subcutaneous injection of either vehicle (NaCl 0.9%), Dex, CpdX, CpdX(eA), CpdX(eB), CpdX-D3, CpdX-D3(eA) or CpdX-D3(eB) (1 mg/kg body weight, diluted in vehicle). Mice were over-night-fasted. Mouse blood glucose concentration was measured before (T0) and during two hours (T120) after glucose i.p. injection ([…] body weight).

B6 male mice [6] = assay: Insulin level, insulin tolerance test and liver insulin signalling after three-month treatment; format: in vivo, mouse
Description: B6 male mice (8-week-old) were subjected daily for three months to a subcutaneous injection of either vehicle (NaCl 0.9%), Dex, CpdX, CpdX(eA), CpdX(eB), CpdX-D3, CpdX-D3(eA) or CpdX-D3(eB) (1 mg/kg body weight, diluted in vehicle). After three months, the blood was collected at 10 a.m. by retro-orbital puncture in lithium-heparin coated vials, and the plasmatic level of insulin was determined.
For the intraperitoneal insulin tolerance test (IPITT), mice were fasted for 6 hours before test. The blood glucose concentration was measured both before (T0) and during a one-hour period after insulin i.p. injection (0.75 U/kg body weight).
Following this three-month treatment, liver samples were harvested and lysed in the RIPA buffer (20 mM Tris pH 8, 150 mM NaCl, 10% glycerol, 1% NP-40 and 2 mM EDTA). Antibodies from Cell Signaling were used to assess by Western-Blotting the relative level of p-IRS1 (S318), IRS-1, p-AKT (S473) and AKT.

B6 male mice [7] = assay: Fatty liver after three-month treatment; format: in vivo, mouse; conditions: three months
Description: B6 male mice (8-week-old) were daily subjected for three months to a subcutaneous injection of either vehicle (NaCl 0.9%), Dex, CpdX, CpdX(eA), CpdX(eB), CpdX-D3, CpdX-D3(eA) or CpdX-D3(eB) (1 mg/kg body weight, diluted in vehicle). Following this treatment, blood was collected at 10 a.m. by retro-orbital puncture in lithium-heparin coated vials. The plasmatic levels of total cholesterol and bile acids were determined.
Liver samples were harvested. […] RNA transcripts were extracted from liver samples and the transcripts of fatty acid synthase (FASN) and Stearoyl-CoA desaturase 1 (SCD1) genes were analyzed by q-RT-PCR.

B6 male mice [8] = assay: Bone formation after three-month treatment (micro-CT, WNT16 transcripts); format: in vivo; conditions: mouse tibia, three months
[9] = biological target: T1, glucocorticoid receptor (GR) (Mus musculus, UniProt P06537); assay: GR transcriptional functions in mouse ears after topical 18-hour treatment (q-RT-PCR); format: in vivo; conditions: in vivo transcriptional analyses, 1 nmole/cm^2
T1 construct: RNA transcripts were then extracted from mouse ears; from tissue; host or cells: ear skin of Balb/C mice (in vivo topical treatment)
T1 sequence (P06537 1-792): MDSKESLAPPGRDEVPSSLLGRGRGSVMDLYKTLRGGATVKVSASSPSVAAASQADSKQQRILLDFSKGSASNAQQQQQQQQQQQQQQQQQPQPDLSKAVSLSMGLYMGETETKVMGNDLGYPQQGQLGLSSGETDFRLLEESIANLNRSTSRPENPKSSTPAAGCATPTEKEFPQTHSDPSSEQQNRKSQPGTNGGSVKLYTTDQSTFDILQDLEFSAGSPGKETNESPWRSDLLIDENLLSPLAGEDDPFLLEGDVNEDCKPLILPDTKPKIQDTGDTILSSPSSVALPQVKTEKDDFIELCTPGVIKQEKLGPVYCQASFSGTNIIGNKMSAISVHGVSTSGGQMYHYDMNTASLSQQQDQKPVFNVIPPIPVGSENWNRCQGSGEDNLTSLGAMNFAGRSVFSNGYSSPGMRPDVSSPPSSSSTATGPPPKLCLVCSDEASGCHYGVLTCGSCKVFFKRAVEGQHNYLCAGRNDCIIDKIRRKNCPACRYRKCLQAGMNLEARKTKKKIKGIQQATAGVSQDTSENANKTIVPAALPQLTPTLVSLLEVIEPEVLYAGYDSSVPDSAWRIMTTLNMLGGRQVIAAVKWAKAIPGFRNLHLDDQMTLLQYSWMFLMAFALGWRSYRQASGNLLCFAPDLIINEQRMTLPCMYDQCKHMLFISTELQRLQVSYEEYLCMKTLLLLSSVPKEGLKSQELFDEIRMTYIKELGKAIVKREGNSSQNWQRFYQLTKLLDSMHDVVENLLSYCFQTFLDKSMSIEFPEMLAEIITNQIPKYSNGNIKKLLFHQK
Description: RNA transcripts were then extracted from mouse ears and the transcripts of 4 genes were analyzed by q-RT-PCR: • (i) the directly GR-transactivated gene of the mTOR inhibitor REDD1, • (ii) the GR-directly transrepressed gene of keratin 5 (K5) and • (iii) the GR-indirectly “tethered” transrepressed genes of interleukin-1β (IL-1β) and interleukin-6 (IL-6), both being activated in presence of 12-O-tetradecanoylphorbol-13-acetate (TPA).

C[C@@H]1C[C@H]2[C@@H]3CCC4=CC(=O)C=C[C@]4(C)[C@@]3(F)[C@@H](O)C[C@]2(C)[C@@]1(O)C(=O)CO [Dex, Dexamethasone, reference compound]
epidermal thickness decreases by (Balb/C mice; eight-day topical treatment, morphometric analysis): ≈ 65%
skin atrophy, histological analysis (Balb/C mice; eight-day topical treatment, 'in marked contrast' = no severe atrophy as with Dex): severely induces a skin atrophy
transcription of the Kindlin-1 gene in dorsal skin (Balb/C mice; topical 8 days, 1 nmole/cm^2, 'but not' = not decreased): strongly decreased
transcription of the REDD1 gene in dorsal skin (Balb/C mice; topical 8 days, 1 nmole/cm^2, 'but not' = not increased): significantly increased
bone area (B6 male mice [1]; s.c. 1 mg/kg daily, micro-CT): reduced
cortical thickness (B6 male mice [1]; s.c. 1 mg/kg daily, micro-CT): drastically decreased
tibia cortical bone volume as compared to the total volume (B6 male mice [1]; s.c. 1 mg/kg daily, micro-CT): significantly decreased
marrow area (B6 male mice [1]; s.c. 1 mg/kg daily, 'but not' = not reduced): but not
number of trabecula (B6 male mice [1]; data not shown): increase
trabecular bone volume (B6 male mice [1]; data not shown): increased
trabecular spacing (B6 male mice [1]; data not shown): decrease
trabecular thickness (B6 male mice [1]; data not shown): no change
fat mass (B6 male mice [2]; pDEXA): disproportional increase
lean percentage / lean mass (B6 male mice [2]; pDEXA): decrease
body weight (B6 male mice [2]; compared with vehicle): net loss
kidney weight (B6 male mice [3]): weak, but significant loss
spleen weight decreased by (B6 male mice [3]): more than 50%
thymus apoptosis / thymus found (B6 male mice [3]): no thymus was found in sixteen out of nineteen mice
weight of the adrenal gland (B6 male mice [3]): decreased
plasmatic corticosterone levels (B6 male mice [4]; at both 10 a.m. and 6 p.m., compared to control mice (Vehicle)): much lower
cortex layers, most notably the fasciculata zone, of the adrenal glands (B6 male mice [4]; three months, histology): drastically decreased
glomerulosa zone of the adrenal cortex (B6 male mice [4]; three months, histology, 'but not' = not decreased): drastically decreased
transcripts of Cyp11a, Cyp11b1 and HSD3β genes in adrenal glands (B6 male mice [4]; three months, q-RT-PCR): inhibited
transcript of the Cyp11b2 gene in adrenal glands (B6 male mice [4]; three months, q-RT-PCR, 'but not' = not inhibited): inhibited
blood glucose level (B6 male mice [5]; three months, over-night fasting, vs vehicle and CpdX compounds): significantly higher
blood glucose level in intraperitoneal glucose tolerance test (IPGTT) (B6 male mice [5]; two-hour period after glucose i.p. injection (2 mg/kg body weight)): significant higher
IPITT test, response to insulin (B6 male mice [6]; one hour after insulin i.p. 0.75 U/kg): significant impaired response to insulin
blood insulin level (hyperinsulinemia) (B6 male mice [6]; three months, 10 a.m., 'but not' = no hyperinsulinemia): hyperinsulinemia
phosphorylation of insulin-stimulated protein kinase B (p-AKT S473) (B6 male mice [6]; western-blot, liver): decreased
phosphorylated insulin receptor substrate 1 (p-IRS1 S318) in liver extracts (B6 male mice [6]; western-blot, 'but not' = no decrease): decrease
lipid deposition in the liver (B6 male mice [7]; 5% Red oil staining of frozen sections): marked lipid deposition
transcripts of fatty acid synthase (FASN) and Stearoyl-CoA desaturase 1 (SCD1) in liver (B6 male mice [7]; q-RT-PCR, 'but not' = no increase): increase
blood cholesterol and bile acids' levels (B6 male mice [7]; 'but not' = no clear increase): clear increase
transcription of the WNT16 gene decreased by (B6 male mice [8]): 50%

Cc1ccc2c(NC[C@](O)(CC(C)(C)c3cc(F)cc4c3OCC4)C(F)(F)F)cccc2n1 [Mapracorat, reference compound]
GR functions induced (direct transactivation, direct transrepression, indirect tethered transrepression) [9]: all three GR functions
